Laboratory results as given in patent US20110171172A1, “COMPOUNDS FOR INHIBITING KSP KINESIN ACTIVITY” (priority 2007, published 2011).

Test system: HCT116 colon cancer cells
Assay: KSP cellular assay (phospho-histone H3 / MPM2 immunofluorescence)
Assay type: cell-based
Conditions: Homo sapiens, HCT-116, 16 hours with drug, percent of cells staining positive for Phos-Histone H3 (ser10) / Phos-MPM2
Protocol: HCT116 colon cancer cells were grown in DMEM:F12 media with 10% heat inactivated FBS at 37 degrees with 5% CO2. Cells were plated at 7,500 cells per well in PDL coated 384-well tissue culture plates. 6 hours later media was removed and new media containing drug was added. Cells were incubated with drug for 16 hours. All further steps were performed at room temperature in the dark. Cells were fixed with 25 ul/well Prefer fixation solution plus 250 nM Hoechst dye and incubated for 30 minutes. The fixation solution was removed and cells were washed with PBS. Cells were then permeabilized with 25 uliwell 0.2% Triton-X in PBS and incubated for 10 minutes. Cells were washed with PBS and then incubated with 25 ul/well PBS containing 3% FBS for 30 minutes. Cells were then stained overnight at 4 degrees with 25 uliwell antibody solution in PBS plus 3% FBS. Antibodies used were Phos-Histone H3 (ser10)-Alexa Flur 488 Conjugate and Phos-MPM2 Texas Red Conjugate. Cells were washed with PBS and then immunofluorescence images captured with HT Pathway microscope. The percent of cells staining positive was calculated and EC50 values for the compounds of the invention that were tested were determined using Excel XLfit.
EC50 Determinations: Dose-response curves were plotted from inhibition data generated each in duplicate, from 8 point serial dilutions of inhibitory compounds. Concentration of compound was plotted against enzyme activity (OD reading). To generate EC50 values, the dose-response curves were then fitted to a standard sigmoidal curve and EC50 values were derived by nonlinear regression analysis.

SMILES	EC50 [nM]
CC(=O)N1N=C(c2cc(F)ccc2F)OC12CCCc1sccc12 (centres unmarked) [compound 101]	> 1000
CC(=O)N1N=C(c2cc(F)ccc2F)OC12CCSc1ccccc12 (centres unmarked) [compound 102]	> 1000
CC(=O)N1N=C(c2cc(F)ccc2F)OC12CCCc1ccccc12 (centres unmarked) [compound 103]	> 1000
CC(=O)N1N=C(c2cc(F)ccc2F)OC12COc1ccccc12 (centres unmarked) [compound 104]	> 1000
CC(=O)N1N=C(c2cc(F)ccc2F)OC12CCOc1ccccc12 (centres unmarked) [compound 105]	> 1000
